One data set relates to HIV-1 IIIB strain. Put plainly: MT-4 HIV Wild Type Virus Infection Assay (IIIB Virus). To be noted: Human immunodeficiency virus 1, IIIB, MT4, 120 h, MT-4 cells acutely infected with HIV-1 IIIB, 5 day incubation, Cell-titer glo. It counts as cell-based. The procedure, abridged: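 MT-4 cells at 2×10^6 cells/ml in RPMI/10% FBS were acutely infected with HIV-1 IIIB for 1 h at 37° C, diluted 25× and added to serially diluted compounds. After 5 days at 37° C, viability read by CellTiter-Glo luminescence; EC50 from dose-response curves.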

Data set [1] deals with bovine intestinal alkaline phosphatase (Bos taurus (Bovine), UniProt P19111). Nature of the data set: BiALP: conversion by bovine intestinal alkaline phosphatase. In kind it is in vitro ADME. Particulars: 2 μM substrate, 100 ng/mL iALP, Tris pH 7.8, 37° C., 60 minutes. The procedure, abridged:
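LC-MS (positive mode) quantified analyte/internal-standard peak area ratios, referenced to 2 μM parent product. This followed a 60 min, 37° C reaction of 2 μM substrate in Tris buffer pH 7.8 (1 mM MgCl2, 1 mM ZnCl2) containing 100 ng/mL iALP or buffer alone, run in triplicate.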

Data set [2] can be described thus: Intestinal S9 Assay (human GI S9). It counts as in vitro ADME. Particulars: human, 1.0 mg/mL S9 protein, TRIS pH 7.4, read-out: Human GI S9 T½. As for the experimental part: (§1) Reagents. Stock solutions of test compounds in dimethyl sulfoxide (DMSO) having a final concentration of 10 mM were prepared and used in all experiments. Sekisui XenoTech (Kansas City, KS) provided pooled intestinal S9 fractions. All other chemicals were purchased from Sigma-Aldrich (St. Louis, MO) or VWR (West Chester, PA). Internal Standard/Quench (IS/Q) used to stop reactions was 100 nM labetalol in (by volume) formic acid (1%) and acetonitrile (99%).
(§2) Intestinal S9 Assay: For each test compound, an aliquot of the test compound was added to S9 stock diluted with TRIS buffer (100 mM TRIS, 1 mM ZnCl2, 1 mM MgCl2), pH 7.4, to obtain an incubation protein concentration of 1.0 mg/mL. The incubation was initiated by the addition of the substrate to the S9 reaction mixture to a final concentration of 2 μM. At 0, 10, 20, 30, 60 and 120 min, 25 μL aliquots of the reaction mixture were transferred to plates containing 225 μl of IS/Q solution. After quenching, the plates were centrifuged at 3000×g for 30 minutes. 150 μL aliquots of each supernatant were transferred to new plates and 150 μL water was added. Aliquots (10 μL) of the prepared samples were analyzed on a Thermo Q-Exactive mass spectrometer as described below.
(§3) Liquid Chromatography-Mass Spectrometry: Quantification of test compounds and control substrate was performed by analyte/internal standard peak area ratio (PAR) values measured on a Thermo Q-Exactive mass spectrometer coupled to a Dionex UltiMate 3000 HPLC with a Leap Technologies HTC PAL autosampler. The column used for analysis was a Thermo Scientific Hypersil GOLD (1.9 μm particle size, 50×2.1 mm). Mobile phase A consisted of 0.1% (v/v) formic acid in water. Mobile phase B consisted of 0.1% (v/v) formic acid in acetonitrile. Elution of analytes was achieved by a series of linear gradients varying the proportions of A and B. The mass spectrometer was calibrated on a weekly basis and mass tolerance of 5 ppm was used.
(§4) Data Analysis. Metabolic stabilities were determined by measuring the rates of disappearance of test compound and positive control substrate. Data (% of substrate remaining) were plotted on a semi-log scale and fitted using an exponential decline model:
(§5) where • Ct% of substrate remaining at time=t • C0% of substrate remaining at time=0 • t time • T½ half-life • The Half-life (T½) is determined by the following equation:
(§6) [formula] • Assuming a first-order reaction, the slope (k) is extrapolated from the aforementioned plotted data.

The nature of data set [3]: Intestinal S9 Assay (dog GI S9). It counts as in vitro ADME. Particulars: dog, 1.0 mg/mL S9 protein, TRIS pH 7.4, read-out: Dog GI S9 T½. As for the experimental part:
as §1, §2, §3, §4, §5, §6

The next data set is described as follows: PBS Stability Assay. It counts as physicochemical. Particulars: buffer, pH 7.4, 2 μM, phosphate buffered saline pH 7.4; read-out: PBS T½. The procedure, abridged:
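Half-life derives from first-order exponential decline of % compound remaining, quantified by LC-MS analyte/internal-standard peak-area ratio. Compound (2 μM final) sat in pH 7.4 phosphate-buffered saline, with aliquots quenched into acidified acetonitrile containing labetalol from 0 to 120 min.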

A further data set can be described thus: physchem. To be noted: 23 °C, pH 6.5, fassif, thermodynamic from solid; for solubility: FaSSIF (pH 6.5) solubility, FaSSIF pH 6.5, dose 5 mg/mL, 2-hour incubation, ambient temperature. In a few lines: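 Concentration measured by HPLC-UV after solid compound was dosed at 5 mg/mL into pH 6.5 fasted-state simulated intestinal fluid containing taurocholate and lecithin (4:1 molar) and vortexed.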

In brackets after ≈: the same amount, converted by molar mass. Read-outs that look alike come from different tables or passages of the source.

Sequence of bovine intestinal alkaline phosphatase (P19111 20-506): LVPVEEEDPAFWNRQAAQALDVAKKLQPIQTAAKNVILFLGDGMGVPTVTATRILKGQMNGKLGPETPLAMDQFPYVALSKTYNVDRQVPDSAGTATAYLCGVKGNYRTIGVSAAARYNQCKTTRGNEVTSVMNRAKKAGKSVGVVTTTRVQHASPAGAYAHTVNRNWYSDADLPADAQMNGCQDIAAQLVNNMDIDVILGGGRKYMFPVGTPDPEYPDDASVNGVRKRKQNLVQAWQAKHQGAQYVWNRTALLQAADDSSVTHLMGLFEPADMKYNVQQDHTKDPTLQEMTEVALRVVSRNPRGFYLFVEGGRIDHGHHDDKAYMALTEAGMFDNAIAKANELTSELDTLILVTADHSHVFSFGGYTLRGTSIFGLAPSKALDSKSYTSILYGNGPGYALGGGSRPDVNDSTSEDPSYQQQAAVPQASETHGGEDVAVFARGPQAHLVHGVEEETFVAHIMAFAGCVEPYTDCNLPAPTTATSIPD

For orientation: EC50 means the concentration at which the effect is half-maximal. For the compound `COC(=O)N[C@H](C(=O)N[C@@H](Cc1ccc(C#Cc2cnc(N3CC4CCC(C3)N4C3COC3)nc2)cc1)[C@H](CN(Cc1c(F)cc(-c2ccn(C(F)F)n2)cc1F)NC(=O)[C@@H](NC(=O)OC)C(C)(C)C(F)(F)F)OC(=O)CC(C)(C)c1c(C)cc(C(=O)O)cc1OP(=O)(O)O)C(C)(C)C(F)(F)F` [Example 3, 4-((5S,10S)-8-(4-(1-(difluoromethyl)-1H-pyrazol-3-yl)-2,6-difluorobenzyl)-14-methyl-10-((1S)-2-(4-((2-(8-(oxetan-3-yl)-3,8-diazabicyclo[3.2.1]octan-3-yl)pyrimidin-5-yl)ethynyl)phenyl)-1-((S)-4,4,4-trifluoro-2-((methoxycarbonyl)amino)-3,3-dimethylbutanamido)ethyl)-3,6,12-trioxo-5-(1,1,1-trifluoro-2-methylpropan-2-yl)-2,11-dioxa-4,7,8-triazapentadecan-14-yl)-3-methyl-5-(phosphonooxy)benzoic acid], in the data set with HIV-1 IIIB strain (read-out: EC50), the EC50 was 96.6 nM. In addition, the “[Compound]” value in data set [1] stood at 1197.7 nM. Besides, the half-life at 2 μM in data set [2] turned out to be 1.98 h; in data set [3], 0.685 h; in the data set “PBS Stability Assay”, 4.19 h.

As a reminder, the solubility is how much of the substance goes into solution per volume. Turning to `COC(=O)N[C@H](C(=O)N[C@@H](Cc1ccc(C#Cc2cnc(N3CC4CCC(C3)N4C3COC3)nc2)cc1)[C@H](CN(Cc1c(F)cc(-c2ccn(C(F)F)n2)cc1F)NC(=O)[C@@H](NC(=O)OC)C(C)(C)C(F)(F)F)OC(=O)CC(C)(C)c1c(CC(=O)O)cc(C)cc1OP(=O)(O)O)C(C)(C)C(F)(F)F` [Example 4], the concentration for a half-maximal effect (EC50) in the data set with HIV-1 IIIB strain (read-out: EC50) turned out to be 20.7 nM. For the same compound, the “[Compound]” value in data set [1] came out at 1627.4 nM. The half-life at 2 μM came out at 7.74 h in data set [2], 1.69 h in data set [3] and 9.43 h in “PBS Stability Assay”. In the data set “physchem”, this compound registered a solubility of 272 µg/mL (≈ 183 µM).

On to `COC(=O)N[C@H](C(=O)N[C@@H](Cc1ccc(C#Cc2cnc(N3CC4CCC(C3)N4C3COC3)nc2)cc1)[C@H](CN(Cc1c(F)cc(-c2ccn(C(F)F)n2)cc1F)NC(=O)[C@@H](NC(=O)OC)C(C)(C)C(F)(F)F)OC(=O)CC(C)(C)c1c(CC(=O)O)cccc1OP(=O)(O)O)C(C)(C)C(F)(F)F` [Example 5, 2-(2-((5S,10S)-8-(4-(1-(difluoromethyl)-1H-pyrazol-3-yl)-2,6-difluorobenzyl)-14-methyl-10-((1S)-2-(4-((2-(8-(oxetan-3-yl)-3,8-diazabicyclo[3.2.1]octan-3-yl)pyrimidin-5-yl)ethynyl)phenyl)-1-((S)-4,4,4-trifluoro-2-((methoxycarbonyl)amino)-3,3-dimethylbutanamido)ethyl)-3,6,12-trioxo-5-(1,1,1-trifluoro-2-methylpropan-2-yl)-2,11-dioxa-4,7,8-triazapentadecan-14-yl)-3-(phosphonooxy)phenyl)acetic acid], for which the EC50 in the data set with HIV-1 IIIB strain (read-out: EC50) stood at 73.7 nM. In data set [1], the “[Compound]” value is reported as 1638.1 nM. Further, the half-life at 2 μM in data set [2] worked out at 11.6 h; in data set [3] it was 0.74 h; in the data set “PBS Stability Assay”, 7.62 h. The solubility in the data set “physchem” was below 1000 µg/mL.

`COC(=O)N[C@H](C(=O)N[C@@H](Cc1ccc(C#Cc2cnc(N3CC4CCC(C3)N4C3COC3)nc2)cc1)[C@H](CN(Cc1c(F)cc(-c2ccn(C(F)F)n2)cc1F)NC(=O)[C@@H](NC(=O)OC)C(C)(C)C(F)(F)F)OC(=O)CC(C)(C)c1c(CC(=O)N[C@@H](CS(=O)(=O)O)C(=O)O)cc(C)cc1OP(=O)(O)O)C(C)(C)C(F)(F)F` [Example 32] gave a 50% effective concentration (EC50) in the data set on HIV-1 IIIB strain of 137 nM. Besides, the results for the half-life at 2 μM (in data set [2]; in data set [3]; in “PBS Stability Assay”) were 3.87 h, 1 h and 5.18 h, respectively. This compound yielded a solubility at 2 h in the data set “physchem” of 3400 µg/mL (≈ 2080 µM).

Compound `COC(=O)N[C@H](C(=O)N[C@@H](Cc1ccc(C#Cc2cnc(N3CC4CCC(C3)N4C3COC3)nc2)cc1)[C@H](CN(Cc1c(F)cc(-c2ccn(C(F)F)n2)cc1F)NC(=O)[C@@H](NC(=O)OC)C(C)(C)C(F)(F)F)OC(=O)CC(C)(C)c1c(CC(=O)Nc2cccc(S(=O)(=O)O)c2)cc(C)cc1OP(=O)(O)O)C(C)(C)C(F)(F)F` [Example 105] yielded an EC50 in the data set on HIV-1 IIIB strain of 217 nM. In addition, the “[Compound]” value in data set [1] is listed as 1626.1 nM. For the same compound, the results for the half-life at 2 μM (in data set [2]; in data set [3]; in the data set “PBS Stability Assay”) were 9.3 h, 4.85 h and 5.51 h, respectively.

`COC(=O)N[C@H](C(=O)N[C@@H](Cc1ccc(C#Cc2cnc(N3CC4CCC(C3)N4C3COC3)nc2)cc1)[C@H](CN(Cc1c(F)cc(-c2ccn(C(F)F)n2)cc1F)NC(=O)[C@@H](NC(=O)OC)C(C)(C)C(F)(F)F)OC(=O)CC(C)(C)c1c(CC(=O)Nc2cc(C(=O)O)cc(S(C)(=O)=O)c2)cc(C)cc1OP(=O)(O)O)C(C)(C)C(F)(F)F` [Example 109] had an EC50 with HIV-1 IIIB strain of 90.5 nM. The “[Compound]” value in data set [1] was determined as 1951.1 nM. Moreover, the half-life at 2 μM was determined as 4.48 h in data set [2] and 2.23 h in data set [3]. In the data set “physchem”, the solubility at 2 h was below 1000 µg/mL.

Consider `COC(=O)N[C@H](C(=O)N[C@@H](Cc1ccc(C#Cc2cnc(N3CC4CCC(C3)N4C3COC3)nc2)cc1)[C@H](CN(Cc1c(F)cc(-c2ccn(C(F)F)n2)cc1F)NC(=O)[C@@H](NC(=O)OC)C(C)(C)C(F)(F)F)OC(=O)CC(C)(C)c1c(CC(=O)N2CC(C(=O)O)C2)cc(C)cc1OP(=O)(O)O)C(C)(C)C(F)(F)F` [Example 110], for which the midpoint of the response in the data set with HIV-1 IIIB strain, the EC50, lay at 138 nM. Also, the “[Compound]” value in data set [1] was found to be 1852.3 nM. Besides, the half-life at 2 μM in data set [2] came to 8.51 h; in data set [3] it was 2.81 h. The same compound had a solubility at 2 h in the data set “physchem” of 4420 µg/mL (≈ 2820 µM).

For the compound `COC(=O)N[C@H](C(=O)N[C@@H](Cc1ccc(C#Cc2cnc(N3CC4CCC(C3)N4C3COC3)nc2)cc1)[C@H](CN(Cc1c(F)cc(-c2ccn(C(F)F)n2)cc1F)NC(=O)[C@@H](NC(=O)OC)C(C)(C)C(F)(F)F)OC(=O)CC(C)(C)c1c(CC(=O)N2CCC[C@@H]2C(=O)O)cc(C)cc1OP(=O)(O)O)C(C)(C)C(F)(F)F` [Example 111], the EC50 with HIV-1 IIIB strain turned out to be 452 nM. Besides, the “[Compound]” value in data set [1] was 1803.5 nM. In addition, the half-life at 2 μM in data set [2] turned out to be 10.3 h; in data set [3], 1.64 h. The compound also returned a solubility at 2 h in the data set “physchem” of 4760 µg/mL (≈ 3010 µM).

`COC(=O)N[C@H](C(=O)N[C@@H](Cc1ccc(C#Cc2cnc(N3CC4CCC(C3)N4C3COC3)nc2)cc1)[C@H](CN(Cc1c(F)cc(-c2ccn(C(F)F)n2)cc1F)NC(=O)[C@@H](NC(=O)OC)C(C)(C)C(F)(F)F)OC(=O)CC(C)(C)c1c(CC(=O)N2CCC(C(=O)O)CC2C(=O)O)cc(C)cc1OP(=O)(O)O)C(C)(C)C(F)(F)F` (some centres unmarked) [Example 113] registered a 50% effective concentration (EC50) in the data set with HIV-1 IIIB strain of 341 nM. Also, in data set [1], the “[Compound]” value stood at 1948 nM. In addition, the results for the half-life at 2 μM in data set [2] and in data set [3] were 6.56 h and 3.38 h, respectively. In “physchem”, this compound yielded a solubility at 2 h of 4140 µg/mL (≈ 2530 µM).

Source of the values: patent US20250051375A1, “ANTI-HIV COMPOUNDS” (Gilead Sciences, Inc., priority 2023, published 2025).
